Source: the NIST ThermoML archive (doi:10.1021/je0503857)
Numbers after ± are expanded uncertainties.

Assays:
[1] = Molar enthalpy of transition or fusion; details: DSC
[2] = for vapor or sublimation pressure: Liquid, Gas chromatography; for Normal melting temperature: Crystal, DTA
[3] = molar heat capacity at constant pressure; details: 298.15 K; 101.33 kPa; Crystal; Small sample (50 mg) DSC

Molar enthalpy of transition or fusion ([1]; Crystal) [kJ/mol]	vapor or sublimation pressure ([2]; 330 K) [kPa]	vapor or sublimation pressure ([2]; 360 K) [kPa]	vapor or sublimation pressure ([2]; 390 K) [kPa]	vapor or sublimation pressure ([2]; 420 K) [kPa]	vapor or sublimation pressure ([2]; 450 K) [kPa]	vapor or sublimation pressure ([2]; 480 K) [kPa]	vapor or sublimation pressure ([2]; 510 K) [kPa]	Normal melting temperature [2] [°C]	molar heat capacity at constant pressure [3] [J/K/mol]	Molar enthalpy of transition or fusion ([1]; Crystal 2) [kJ/mol]	vapor or sublimation pressure ([2]; 298.15 K) [kPa]	vapor or sublimation pressure ([2]; 300 K) [kPa]	SMILES
82.8 ± 2.2	5.89e-07 ± 7.1e-08	2.687e-05 ± 2.7e-06	0.000588 ± 5.9e-05	0.007063 ± 0.00071	0.0523 ± 0.0052	0.2627 ± 0.026	0.9664 ± 0.097	71.4 ± 0.5	625 ± 13				CCCCCCCCCCCCCCCCCCCCCCO [1-docosanol]
	3.509e-06 ± 3.6e-07	0.0001228 ± 1.2e-05	0.002151 ± 0.00021	0.02156 ± 0.0022	0.1382 ± 0.014	0.6201 ± 0.062	2.091 ± 0.21	64 ± 1	571.2 ± 11	78.4 ± 2.1	3.215e-08 ± 1.3e-08	4.345e-08 ± 1.4e-08	CCCCCCCCCCCCCCCCCCCCO [1-eicosanol]
	4.724e-05 ± 4.8e-06	0.001125 ± 0.00011	0.01426 ± 0.0014	0.1098 ± 0.011	0.571 ± 0.057	2.174 ± 0.22	6.457 ± 0.65	52.2 ± 0.5	490.5 ± 9.8	63.4 ± 1.7	6.86e-07 ± 7.9e-08	9.02e-07 ± 1e-07	CCCCCCCCCCCCCCCCCO [1-heptadecanol]
104 ± 2.7	1.78e-08 ± 1.2e-08	1.364e-06 ± 1.5e-07	4.614e-05 ± 4.6e-06	0.0007898 ± 7.9e-05	0.007756 ± 0.00078	0.0486 ± 0.0049	0.212 ± 0.021	80.0 ± 0.5	732.6 ± 15		6.401e-11	9.145e-11	CCCCCCCCCCCCCCCCCCCCCCCCCCO [1-hexacosanol]
								52.5 ± 5	517.4 ± 10	69.6 ± 1.8			CCCCCCCCCCCCCCCCCCO [1-octadecanol]
35.7 ± 1								38.4 ± 0.5	472.6 ± 9.5				CCCCCCCCCCCCCC(O)CCC (configuration not stated) [4-heptadecanol]
49 ± 1.3	0.0001082 ± 1.1e-05	0.002283 ± 0.00023	0.02614 ± 0.0026	0.1853 ± 0.019	0.901 ± 0.09	3.255 ± 0.33	9.287 ± 0.93	42.7 ± 0.5	472.6 ± 9.5		1.813e-06 ± 1.9e-07	2.363e-06 ± 2.5e-07	CCCCCCCCCCCC(O)CCCCC (configuration not stated) [6-heptadecanol]
28.8 ± 0.9	0.0001153 ± 1.2e-05	0.002406 ± 0.00024	0.0273 ± 0.0027	0.192 ± 0.019	0.9282 ± 0.093	3.337 ± 0.33	9.481 ± 0.95	41.2 ± 0.5	472.6 ± 9.5		1.959e-06 ± 2.1e-07	2.552e-06 ± 2.7e-07	CCCCCCCCCCC(O)CCCCCC (configuration not stated) [7-heptadecanol]
43.2 ± 1.2	0.0001127 ± 1.1e-05	0.002368 ± 0.00024	0.02704 ± 0.0027	0.1913 ± 0.019	0.929 ± 0.093	3.354 ± 0.34	9.568 ± 0.96	57.1 ± 0.5	472.6 ± 9.5		1.895e-06 ± 2e-07	2.471e-06 ± 2.6e-07	CCCCCCCCC(O)CCCCCCCC [9-heptadecanol]
	1.71e-08 ± 1.2e-08	1.132e-06 ± 1.2e-07	3.397e-05 ± 3.4e-06	0.0005237 ± 5.3e-05	0.004678 ± 0.00047	0.02685 ± 0.0027	0.1078 ± 0.011				7.557e-11	1.065e-10	CC(C)CCC[C@@H](C)[C@H]1CC[C@H]2[C@@H]3CC=C4C[C@@H](O)CC[C@]4(C)[C@H]3CC[C@]12C [.DELTA.5-cholesten-3β-ol]
